Like-named read-outs stand apart in the source and are kept apart here. One block for each compound: values may come before it.
Legend:
human SphK1 = human SphK1 (Homo sapiens, UniProt Q9NYA1); experiment: Sphingosine kinase assay, recombinant human SphK1, γ-[32P]ATP; conditions: for remaining activity at 0.3 µM: read-out: hSphK1 (SphK activity, % control, no inhibitor added)
human SphK2 = target: T1, human SphK2 (Homo sapiens, UniProt Q9NRA0); experiment: Sphingosine kinase assay, recombinant human SphK2, γ-[32P]ATP; conditions: for inhibition at 0.3 µM: read-out: SphK2 inhibition (decrease of activity); for hSphK2 (SphK activity, % control, no inhibitor added): compounds at 0.3 μM, triplicate, 10 μM sphingosine, 250 μM γ-[32P]ATP
T1 sequence (Q9NRA0 1-654): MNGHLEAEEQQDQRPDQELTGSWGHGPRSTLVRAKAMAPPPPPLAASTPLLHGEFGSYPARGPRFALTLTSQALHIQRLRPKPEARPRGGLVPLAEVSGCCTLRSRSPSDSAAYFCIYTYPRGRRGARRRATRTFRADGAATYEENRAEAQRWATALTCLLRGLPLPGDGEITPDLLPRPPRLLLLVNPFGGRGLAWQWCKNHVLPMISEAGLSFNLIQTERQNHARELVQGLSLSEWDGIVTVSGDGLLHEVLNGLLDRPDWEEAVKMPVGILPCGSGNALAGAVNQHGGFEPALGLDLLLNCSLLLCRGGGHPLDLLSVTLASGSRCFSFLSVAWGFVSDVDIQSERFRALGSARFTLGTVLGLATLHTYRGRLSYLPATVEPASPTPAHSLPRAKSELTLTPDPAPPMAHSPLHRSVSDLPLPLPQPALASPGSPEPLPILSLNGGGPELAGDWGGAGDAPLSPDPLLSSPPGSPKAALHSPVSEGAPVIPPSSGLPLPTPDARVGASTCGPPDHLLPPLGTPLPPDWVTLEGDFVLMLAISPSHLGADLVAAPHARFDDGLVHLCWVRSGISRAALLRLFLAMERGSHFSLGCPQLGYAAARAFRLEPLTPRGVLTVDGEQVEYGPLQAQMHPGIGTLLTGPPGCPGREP

U937 cells [1] = conditions: cited from earlier work
SphK1 = conditions: both the rat and human enzymes; cited from earlier work
rats = conditions: cited from earlier work
U937 cells [2] = experiment: Sphingolipid; type: cell-based, human; conditions: 2 h incubation, LC-MS-MS
C57BL/6 mice = experiment: Blood S1P levels in mice after ip dosing, LC-MS-MS; type: in vivo; conditions: single 10 mg/kg ip dose
[3] = read-out: hSphK2 (SphK activity, % control, no inhibitor added)
[4] = read-out: SphK2 activity remaining

human SphK1, sequence (Q9NYA1 whole entry): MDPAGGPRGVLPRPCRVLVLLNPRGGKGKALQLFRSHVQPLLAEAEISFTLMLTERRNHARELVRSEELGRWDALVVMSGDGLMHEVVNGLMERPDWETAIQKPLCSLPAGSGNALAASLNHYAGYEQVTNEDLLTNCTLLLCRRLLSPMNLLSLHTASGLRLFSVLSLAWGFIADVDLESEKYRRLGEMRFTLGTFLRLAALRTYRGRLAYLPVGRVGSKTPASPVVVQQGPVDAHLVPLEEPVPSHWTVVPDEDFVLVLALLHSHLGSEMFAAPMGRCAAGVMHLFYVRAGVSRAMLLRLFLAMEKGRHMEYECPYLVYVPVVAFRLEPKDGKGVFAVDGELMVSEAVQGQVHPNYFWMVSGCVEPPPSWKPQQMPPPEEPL

Compound: N=C(N)N1CCC[C@H]1Cc1nc(-c2ccc(Nc3nc(-c4cccc(OC(F)(F)F)c4)cs3)cc2)no1 [Compound 20s, (S)-amino(2-((3-(4-((4-(3-(trifluoromethoxy)phenyl)thiazol-2-yl)amino)phenyl)-1,2,4-oxadiazol-5-yl)methyl)pyrrolidin-1-yl)methaniminium chloride]
remaining activity at 0.3 µM (human SphK1): 90 ± 1% | remaining activity at 0.3 µM (human SphK2; [3]): 100 ± 2%

Compound: N=C(N)N1CCC[C@H]1Cc1nc(-c2ccc(Oc3nc(-c4ccc(C(F)(F)F)cc4)cs3)cc2)no1 [Compound 31, (S)-amino(2-((3-(4-((4-(4-(trifluoromethyl)phenyl)thiazol-2-yl)oxy)phenyl)-1,2,4-oxadiazol-5-yl)methyl)pyrrolidin-1-yl)methaniminium chloride]
inhibition at 0.3 µM (human SphK1; read-out: SphK1 inhibition (decrease of activity)): ~45% | inhibition at 0.3 µM (human SphK2): ~45%

Compound: CCCCCCCCc1ccc(-c2noc(C[C@@H]3CCCN3C(=N)N)n2)cc1 [Compound 3]
S1P levels in cultured human U937 leukemia cells (U937 cells [1]): reduce S1P levels | selectivity for SphK1 over SphK2 (SphK1): > 100 fold | S1P levels in the bloodstream of rats (rats): reduce S1P levels

Compound: N=C(N)N1CCC[C@H]1Cc1nc(-c2ccc(Nc3nc(-c4ccc(OC(F)(F)F)cc4)cs3)cc2)no1 [Compound 20r, (S)-amino(2-((3-(4-((4-(4-(trifluoromethoxy)phenyl)thiazol-2-yl)amino)phenyl)-1,2,4-oxadiazol-5-yl)methyl)pyrrolidin-1-yl)methaniminium chloride]
remaining activity at 0.3 µM (human SphK2; [4]): ~40% | remaining activity at 0.3 µM (human SphK2; [3]): 84 ± 2%

Compound: Cl.N=C(N)N1CCC[C@H]1Cc1nc(-c2ccc(Nc3nc(-c4ccc(-c5cccc(C(F)(F)F)c5)cc4)cs3)cc2)no1 [Compound 23d, (S)-amino(2-((3-(4-((4-(3′-(trifluoromethyl)-[1,1′-biphenyl]-4-yl)thiazol-2-yl)amino)phenyl)-1,2,4-oxadiazol-5-yl)methyl)pyrrolidin-1-yl)methaniminium chloride]
SphK1 inhibition, in words (human SphK1; screen at 0.3 μM): inactive | SphK2 inhibition, in words (human SphK2; screen at 0.3 μM): inactive

Compound: Cl.N=C(N)N1CCC[C@H]1Cc1nc(-c2ccc(Nc3nc(-c4cc(C(F)(F)F)cc(C(F)(F)F)c4)cs3)cc2)no1 [Compound 20bb, (S)-amino(2-((3-(4-((4-(3,5-bis(trifluoromethyl)phenyl)thiazol-2-yl)amino)phenyl)-1,2,4-oxadiazol-5-yl)methyl)pyrrolidin-1-yl)methaniminium chloride]
SphK1 inhibition, in words (human SphK1; concentrations up to 1 μM): inactive

Compound: Cl.N=C(N)N1CCC[C@H]1Cc1nc(-c2ccc(Nc3nc(-c4ccc(-c5ccc(C(F)(F)F)cc5)cc4)cs3)cc2)no1 [Compound 23c, (S)-amino(2-((3-(4-((4-(4′-(trifluoromethyl)-[1,1′-biphenyl]-4-yl)thiazol-2-yl)amino)phenyl)-1,2,4-oxadiazol-5-yl)methyl)pyrrolidin-1-yl)methaniminium chloride]
SphK1 inhibition, in words (human SphK1; screen at 0.3 μM): inactive | SphK2 inhibition, in words (human SphK2; screen at 0.3 μM): inactive

Compound: (S)-(2-((3-(4-((4-([1,1′-biphenyl]-4-yl)thiazol-2-yl)amino)phenyl)-1,2,4-oxadiazol-5-yl)methyl)pyrrolidin-1-yl)(amino)methaniminium chloride [Compound 34]
hSphK2 (SphK activity, % control, no inhibitor added) (human SphK2): 100 ±5 % control | SphK2 inhibition, in words (human SphK2; concentrations up to 1 μM): completely inactive

Compound: N=C(N)N1CCC[C@H]1Cc1nc(-c2ccc(Nc3nc(-c4ccncc4)cs3)cc2)no1.O=C(O)C(F)(F)F [Compound 20b, (S)-amino(2-((3-(4-((4-(pyridin-4-yl)thiazol-2-yl)amino)phenyl)-1,2,4-oxadiazol-5-yl)methyl)pyrrolidin-1-yl)methaniminium trifluoroacetate]
SphK1 inhibition, in words (human SphK1; screen at 0.3 μM): inactive | SphK2 inhibition, in words (human SphK2; screen at 0.3 μM): inactive

Compound: (S)-amino(2-((3-(4-((4-(benzofuran-2-yl)thiazol-2-yl)amino)phenyl)-1,2,4-oxadiazol-5-yl)methyl)pyrrolidin-1-yl)methaniminium chloride [Compound 20ee]
hSphK2 (SphK activity, % control, no inhibitor added) (human SphK2): 67 ±5 % control

Compound: Cl.N=C(N)N1CCC[C@H]1Cc1nc(-c2ccc(Nc3nc(-c4ccc(-c5ccccc5)cc4)cs3)cc2)no1 [Compound 20dd, (S)-(2-((3-(4-((4-([1,1′-biphenyl]-4-yl)thiazol-2-yl)amino)phenyl)-1,2,4-oxadiazol-5-yl)methyl)pyrrolidin-1-yl)(amino)methaniminium chloride]
S1P levels in U937 cells (U937 cells [2]): concentration-dependent decrease | Sph (sphingosine) levels in U937 cells (U937 cells [2]): remained constant | blood S1P levels (C57BL/6 mice; after 24 hours): returned to basal levels | blood S1P levels (C57BL/6 mice; two and six hour time points): increased

Compound: Cl.N=C(N)N1CCC[C@H]1Cc1nc(-c2ccc(Nc3nc(-c4cccc(C(F)(F)F)c4)cs3)cc2)no1 [Compound 20l, (S)-amino(2-((3-(4-((4-(3-(trifluoromethyl)phenyl)thiazol-2-yl)amino)phenyl)-1,2,4-oxadiazol-5-yl)methyl)pyrrolidin-1-yl)methaniminium chloride]
S1P levels in U937 cells (U937 cells [2]): concentration-dependent decrease | Sph (sphingosine) levels in U937 cells (U937 cells [2]): remained constant

Second part, the compound after the results:

SphK1 inhibition, in words (human SphK1; screen at 0.3 μM): inactive | SphK2 inhibition, in words (human SphK2; screen at 0.3 μM): inactive
Compound: Cl.N=C(N)N1CCC[C@H]1Cc1nc(-c2ccc(Nc3nc(-c4cccnc4)cs3)cc2)no1 [Compound 20c, (S)-amino(2-((3-(4-((4-(pyridin-3-yl)thiazol-2-yl)amino)phenyl)-1,2,4-oxadiazol-5-yl)methyl)pyrrolidin-1-yl)methaniminium chloride]

remaining activity at 0.3 µM (human SphK1): 89 ± 0.7% | inhibition at 0.3 µM (human SphK2): < 30% | remaining activity at 0.3 µM (human SphK2; [3]): 44 ± 12%
Compound: Cc1ccc(-c2csc(Nc3ccc(-c4noc(C[C@@H]5CCCN5C(=N)N)n4)cc3)n2)cc1 [Compound 20n, (S)-amino(2-((3-(4-((4-(p-tolyl)thiazol-2-yl)amino)phenyl)-1,2,4-oxadiazol-5-yl)methyl)pyrrolidin-1-yl)methaniminium chloride]

SphK1 inhibition, in words (human SphK1; screen at 0.3 μM): no SphK1 inhibition | remaining activity at 0.3 µM (human SphK2; [4]): ~70%
Compound: COc1ccc(-c2csc(Nc3ccc(-c4noc(C[C@@H]5CCCN5C(=N)N)n4)cc3)n2)cc1Cl.Cl [Compound 20v, (S)-amino(2-((3-(4-((4-(3-chloro-4-methoxyphenyl)thiazol-2-yl)amino)phenyl)-1,2,4-oxadiazol-5-yl)methyl)pyrrolidin-1-yl)methaniminium chloride]

SphK1 inhibition, in words (human SphK1; screen at 0.3 μM): poor inhibition | SphK2 inhibition, in words (human SphK2; screen at 0.3 μM): poor inhibition
Compound: Cl.N=C(N)N1CCC[C@H]1Cc1nc(-c2ccc(Nc3nc(-c4ccccc4)cs3)cc2)no1 [Compound 20a, (S)-amino(2-((3-(4-((4-phenylthiazol-2-yl)amino)phenyl)-1,2,4-oxadiazol-5-yl)methyl)pyrrolidin-1-yl)methaniminium chloride]

remaining activity at 0.3 µM (human SphK1): 75 ± 0.2% | inhibition at 0.3 µM (human SphK2): < 30% | remaining activity at 0.3 µM (human SphK2; [3]): 80 ± 7%
Compound: CCOc1ccc(-c2csc(Nc3ccc(-c4noc(C[C@@H]5CCCN5C(=N)N)n4)cc3)n2)cc1 [Compound 20p, (S)-amino(2-((3-(4-((4-(4-ethoxyphenyl)thiazol-2-yl)amino)phenyl)-1,2,4-oxadiazol-5-yl)methyl)pyrrolidin-1-yl)methaniminium chloride]

remaining activity at 0.3 µM (human SphK1): 58 ± 4% | inhibition at 0.3 µM (human SphK2): < 30% | remaining activity at 0.3 µM (human SphK2; [3]): 82 ± 6%
Compound: COc1ccc(-c2csc(Nc3ccc(-c4noc(C[C@@H]5CCCN5C(=N)N)n4)cc3)n2)cc1 [Compound 20o, (S)-amino(2-((3-(4-((4-(4-methoxyphenyl)thiazol-2-yl)amino)phenyl)-1,2,4-oxadiazol-5-yl)methyl)pyrrolidin-1-yl)methaniminium chloride]

Source: PMC6047346 (Journal of medicinal chemistry, 2017)
